Laboratory results published in patent US20230322846A9, “NEUROACTIVE STEROIDS AND THEIR METHODS OF USE” (SAGE THERAPEUTICS, INC., priority 2018, published 2023).

Each compound was assayed against [35S]-TBPS binding, rat brain cortical membranes (assay: Steroid inhibition of [35S]-TBPS binding). Conditions: 3 nM [35S]-TBPS, in the presence of 5 mM GABA.
Outline: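 Rat cortical P2 membranes incubated 90 min at room temperature with 3 nM [35S]-TBPS, […] and test compound (0.5% DMSO final) in NaCl/Na–K phosphate pH 7.4; nonspecific binding with […]. Filter-bound radioactivity counted; IC50 and Imax from nonlinear fits, mean ± SEM.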
For `C[C@@H]([C@H]1CC[C@H]2[C@@H]3CC[C@@H]4C[C@](C)(O)CC[C@@H]4[C@H]3CC[C@]12C)n1cc(C#N)cn1` [Example 157, 1-((S)-1-((3R,5R,8R,9R,10S,13S,14S,17S)-3-hydroxy-3,13-dimethylhexadecahydro-1H-cyclopenta[a]phenanthren-17-yl)ethyl)-1H-pyrazole-4-carbonitrile], the IC50 was 1000 to 10000 nM.
`C[C@H]([C@H]1CC[C@H]2[C@@H]3CC[C@@H]4C[C@](C)(O)CC[C@@H]4[C@H]3CC[C@]12C)n1nccn1` [Example 158, (3R,5R,8R,9R,10S,13S,14S,17S)-17-((R)-1-(2H-1,2,3-triazol-2-yl)ethyl)-3,13-dimethylhexadecahydro-1H-cyclopenta[a]phenanthren-3-ol] showed an IC50 of 100 to 1000 nM.
`C[C@H]([C@H]1CC[C@H]2[C@@H]3CC[C@@H]4C[C@](C)(O)CC[C@@H]4[C@H]3CC[C@]12C)n1ccnn1` [Example 159, (3R,5R,8R,9R,10S,13S,14S,17S)-17-((R)-1-(1H-1,2,3-triazol-1-yl)ethyl)-3,13-dimethylhexadecahydro-1H-cyclopenta[a]phenanthren-3-ol] gave an IC50 of no less than 10000 nM.
In the case of `CCOC[C@@]1(O)CC[C@H]2[C@H](CC[C@@H]3[C@@H]2CC[C@]2(C)[C@@H]([C@@H](C)n4ncc(C#N)c4N)CC[C@@H]32)C1` [Example 160, 5-amino-1-((R)-1-((3R,5R,8R,9R,10S,13S,14S,17S)-3-(ethoxymethyl)-3-hydroxy-13-methylhexadecahydro-1H-cyclopenta[a]phenanthren-17-yl)ethyl)-1H-pyrazole-4-carbonitrile], the IC50 is reported as 1000 to 10000 nM.
`CCOC[C@@]1(O)CC[C@H]2[C@H](CC[C@@H]3[C@@H]2CC[C@]2(C)[C@@H]([C@H](C)n4ncc(C#N)c4N)CC[C@@H]32)C1` [Example 161, 5-amino-1-((S)-1-((3R,5R,8R,9R,10S,13S,14S,17S)-3-(ethoxymethyl)-3-hydroxy-13-methylhexadecahydro-1H-cyclopenta[a]phenanthren-17-yl)ethyl)-1H-pyrazole-4-carbonitrile] was tested, and the IC50 was 1000 to 10000 nM.
Work on `CCOC[C@@]1(O)CC[C@H]2[C@H](CC[C@@H]3[C@@H]2CC[C@]2(C)[C@@H]([C@@H](C)n4cc(C#N)cn4)CC[C@@H]32)C1` [Example 162, 1-((R)-1-((3R,5R,8R,9R,10S,13S,14S,17S)-3-(ethoxymethyl)-3-hydroxy-13-methylhexadecahydro-1H-cyclopenta[a]phenanthren-17-yl)ethyl)-1H-pyrazole-4-carbonitrile] yielded an IC50 of 100 to 1000 nM.
With `CCOC[C@@]1(O)CC[C@H]2[C@H](CC[C@@H]3[C@@H]2CC[C@]2(C)[C@@H]([C@H](C)n4cc(C#N)cn4)CC[C@@H]32)C1` [Example 163, 1-((S)-1-((3R,5R,8R,9R,10S,13S,14S,17S)-3-(ethoxymethyl)-3-hydroxy-13-methylhexadecahydro-1H-cyclopenta[a]phenanthren-17-yl)ethyl)-1H-pyrazole-4-carbonitrile] the IC50 was 1000 to 10000 nM.
`C[C@@H]([C@H]1CC[C@H]2[C@@H]3CC[C@@H]4C[C@](C)(O)CC[C@@H]4[C@H]3CC[C@]12C)n1nccn1` [Example 164, (3R,5R,8R,9R,10S,13S,14S,17S)-17-((S)-1-(2H-1,2,3-triazol-2-yl)ethyl)-3,13-dimethylhexadecahydro-1H-cyclopenta[a]phenanthren-3-ol] showed an IC50 of 1000 to 10000 nM.
Work on `C[C@H](Nc1cccc(C#N)c1)[C@H]1CC[C@H]2[C@@H]3CC[C@@H]4C[C@](C)(O)CC[C@@H]4[C@H]3CC[C@]12C` [Example 201] yielded an IC50 of 100 to 1000 nM.
In the case of `C[C@@H](Nc1cccc(C#N)c1)[C@H]1CC[C@H]2[C@@H]3CC[C@@H]4C[C@](C)(O)CC[C@@H]4[C@H]3CC[C@]12C` [Example 202], the IC50 is reported as less than 100 nM.
`C[C@@H](Nc1cccnc1)[C@H]1CC[C@H]2[C@@H]3CC[C@@H]4C[C@](C)(O)CC[C@@H]4[C@H]3CC[C@]12C` [Example 203] gave an IC50 of less than 100 nM.
For `C[C@H](Nc1cccnc1)[C@H]1CC[C@H]2[C@@H]3CC[C@@H]4C[C@](C)(O)CC[C@@H]4[C@H]3CC[C@]12C` [Example 204], the IC50 was 100 to 1000 nM.
Compound `C[C@H](Nc1ccc(C#N)cc1)[C@H]1CC[C@H]2[C@@H]3CC[C@@H]4C[C@](C)(O)CC[C@@H]4[C@H]3CC[C@]12C` [Example 205] has an IC50 of 1000 to 10000 nM.
For `CCOC[C@@]1(O)CC[C@H]2[C@H](CC[C@@H]3[C@@H]2CC[C@]2(C)[C@@H]([C@@H](C)N[C@H](C)c4ccccc4)CC[C@@H]32)C1` [Example 206], the IC50 was 100 to 1000 nM.
With `CCOC[C@@]1(O)CC[C@@]2(C)[C@H](CC[C@@H]3[C@@H]2CC[C@]2(C)[C@@H]([C@@H](C)N[C@H](C)c4ccccc4)CC[C@@H]32)C1` [Example 207] the IC50 was 1000 to 10000 nM.
`C[C@@H](N[C@H](C)[C@H]1CC[C@H]2[C@@H]3CC[C@@H]4C[C@](C)(O)CC[C@@H]4[C@H]3CC[C@]12C)c1ccccc1` [Example 208] was tested, and the IC50 was 100 to 1000 nM.
Compound `C[C@H](N[C@H](C)[C@H]1CC[C@H]2[C@@H]3CC[C@@H]4C[C@](C)(O)CC[C@@H]4[C@H]3CC[C@]12C)c1ccccc1` [Example 209] has an IC50 of 100 to 1000 nM.
`C[C@H](N[C@@H](C)[C@H]1CC[C@H]2[C@@H]3CC[C@@H]4C[C@](C)(O)CC[C@@H]4[C@H]3CC[C@]12C)c1ccccc1` [Example 210] gave an IC50 of 1000 to 10000 nM.
`CCOC[C@@]1(O)CC[C@@]2(C)[C@H](CC[C@@H]3[C@@H]2CC[C@]2(C)[C@@H]([C@@H](C)N[C@@H](C)c4ccccc4)CC[C@@H]32)C1` [Example 211] gave an IC50 of 100 to 1000 nM.
With `CCOC[C@@]1(O)CC[C@@]2(C)[C@H](CC[C@@H]3[C@@H]2CC[C@]2(C)[C@@H]([C@H](C)N[C@@H](C)c4ccccc4)CC[C@@H]32)C1` [Example 212] the IC50 was 1000 to 10000 nM.
`CC[C@H](NCc1ccccc1)[C@H]1CC[C@H]2[C@@H]3CC[C@@H]4C[C@@](O)(COC)CC[C@@H]4[C@H]3CC[C@]12C` [Example 213, (3R,5R,8R,9R,10S,13S,14S,17S)-17-((S)-1-(benzylamino)propyl)-3-(methoxymethyl)-13-methylhexadecahydro-1H-cyclopenta[a]phenanthren-3-ol] showed an IC50 of 1000 to 10000 nM.
`CC[C@@H](NCc1ccccc1)[C@H]1CC[C@H]2[C@@H]3CC[C@@H]4C[C@@](O)(COC)CC[C@@H]4[C@H]3CC[C@]12C` [Example 214, (3R,5R,8R,9R,10S,13S,14S,17S)-17-((R)-1-(benzylamino)propyl)-3-(methoxymethyl)-13-methylhexadecahydro-1H-cyclopenta[a]phenanthren-3-ol] was tested, and the IC50 was 1000 to 10000 nM.
Compound `Cc1cc(C#N)ccc1N[C@H](C)[C@H]1CC[C@H]2[C@@H]3CC[C@@H]4C[C@](C)(O)CC[C@@H]4[C@H]3CC[C@]12C` [Example 250] has an IC50 of less than 100 nM.
Compound `Cc1cc(C#N)ccc1N[C@@H](C)[C@H]1CC[C@H]2[C@@H]3CC[C@@H]4C[C@](C)(O)CC[C@@H]4[C@H]3CC[C@]12C` [Example 251] has an IC50 of 100 to 1000 nM.
`COC[C@@]1(O)CC[C@H]2[C@H](CC[C@@H]3[C@@H]2CC[C@]2(C)[C@@H]([C@@H](C)Nc4ccc(C#N)cc4C)CC[C@@H]32)C1` [Example 252] gave an IC50 of less than 100 nM.
`COC[C@@]1(O)CC[C@H]2[C@H](CC[C@@H]3[C@@H]2CC[C@]2(C)[C@@H]([C@H](C)Nc4ccc(C#N)cc4C)CC[C@@H]32)C1` [Example 253] gave an IC50 of 1000 to 10000 nM.
For `COC[C@@]1(O)CC[C@H]2[C@H](CC[C@@H]3[C@@H]2CC[C@]2(C)[C@@H]([C@@H](C)Nc4cccc(C#N)c4)CC[C@@H]32)C1` [Example 254], the IC50 was less than 100 nM.
`COC[C@@]1(O)CC[C@H]2[C@H](CC[C@@H]3[C@@H]2CC[C@]2(C)[C@@H]([C@H](C)Nc4cccc(C#N)c4)CC[C@@H]32)C1` [Example 255] showed an IC50 of 1000 to 10000 nM.
Work on `COC[C@@]1(O)CC[C@H]2[C@H](CC[C@@H]3[C@@H]2CC[C@]2(C)[C@@H]([C@@H](C)Nc4ccc(C#N)cc4)CC[C@@H]32)C1` [Example 256] yielded an IC50 of less than 100 nM.
Work on `COC[C@@]1(O)CC[C@H]2[C@H](CC[C@@H]3[C@@H]2CC[C@]2(C)[C@@H]([C@H](C)Nc4ccc(C#N)cc4)CC[C@@H]32)C1` [Example 257] yielded an IC50 of 100 to 1000 nM.
For `COC[C@@]1(O)CC[C@H]2[C@H](CC[C@@H]3[C@@H]2CC[C@]2(C)[C@@H]([C@@H](C)Nc4ccc(C#N)nc4)CC[C@@H]32)C1` [Example 258], the IC50 was 100 to 1000 nM.
`CCOC[C@@]1(O)CC[C@H]2[C@H](CC[C@@H]3[C@@H]2CC[C@]2(C)[C@@H]([C@@H](C)Nc4cccc(N5CCCC5=O)c4C)CC[C@@H]32)C1` [Example 259] showed an IC50 of less than 100 nM.
`CCOC[C@@]1(O)CC[C@H]2[C@H](CC[C@@H]3[C@@H]2CC[C@]2(C)[C@@H]([C@@H](C)Nc4ccc(C#N)cc4C)CC[C@@H]32)C1` [Example 260] showed an IC50 of less than 100 nM.
`CCOC[C@@]1(O)CC[C@H]2[C@H](CC[C@@H]3[C@@H]2CC[C@]2(C)[C@@H]([C@@H](C)Nc4ccc(C#N)nc4)CC[C@@H]32)C1` [Example 261] was tested, and the IC50 was 100 to 1000 nM.
`CCOC[C@@]1(O)CC[C@H]2[C@H](CC[C@@H]3[C@@H]2CC[C@]2(C)[C@@H]([C@@H](C)Nc4cccnc4F)CC[C@@H]32)C1` [Example 262] gave an IC50 of less than 100 nM.
For `CCOC[C@@]1(O)CC[C@H]2[C@H](CC[C@@H]3[C@@H]2CC[C@]2(C)[C@@H]([C@@H](C)Nc4ccc(-n5ccc(C#N)n5)nc4)CC[C@@H]32)C1` [Example 264], the IC50 was 100 to 1000 nM.
